According to US12552748B2, “Pyridine (thio)amides as fungicidal compounds” (Bayer Aktiengesellschaft, priority 2020, dated 2026):
Marks after values point to notes of the source that are not given here.

What was measured:
[1] = physchem; assay type: physicochemical
In short: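 Reversed-phase HPLC per EEC directive 79/831 Annex V.A8, calibrated with straight-chain alkan-2-ones (C3–C16) of known Log P via linear interpolation of retention times. Lambda-max from UV spectra 200–400 nm at chromatographic peaks.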

[2] = test system: Sphaerotheca fuliginea; experiment: In vivo preventive test on Sphaerotheca fuliginea (powdery mildew on cucurbits); conditions: Podosphaera fuliginea, 192 h; 500 ppm of active ingredient; preventive spray on gherkin; evaluated 8 days after inoculation; 0% = control plants, 100% = no disease; read-out: efficacy
Protocol: (§1) B-4. In Vivo Preventive Test on Sphaerotheca fuliginea (Powdery Mildew on Cucurbits [table] The active ingredients were made soluble and homogenized in a mixture of Dimethyl sulfoxide/Acetone/Tween® 80 and then diluted in water to the desired concentration. The young plants of gherkin were treated by spraying the active ingredient prepared as described above. Control plants were treated only with an aqueous solution of Acetone/Dimethyl sulfoxide/Tween® 80. After 24 hours, the plants were contaminated by spraying the leaves with an aqueous suspension of Sphaerotheca fuliginea spores.

[3] = test system: Botrytis cinerea; experiment: In vivo preventive test on Botrytis cinerea (grey mould); conditions: 500 ppm of active ingredient, preventive spray on gherkin or cabbage, evaluated 4 to 5 days after inoculation, 0% = control plants, 100% = no disease, read-out: efficacy
Protocol: as §1, with “B-2.” for “B-4.”, “Botrytis cinerea (Grey Mould” for “Sphaerotheca fuliginea (Powdery Mildew on Cucurbits”, “gherkin or cabbage” for “gherkin”, “Botrytis cinerea” for “Sphaerotheca fuliginea”

[4] = test system: Pyricularia oryzae; experiment: microbe, parasite or virus in culture; assay type: cell-based; conditions: 120 h, read-out: efficacy (inhibition of fungal growth)
[5] = test system: Colletotrichum lindemuthianum; experiment: Colletotrichum lindemuthianum in vitro cell test; assay type: cell-based; conditions: 144 h, read-out: efficacy (inhibition of fungal growth)
Protocol: B-8. Colletotrichum lindemuthianum In Vitro Cell Test
• Solvent: DMSO • Culture medium: 14.6 g anhydrous D-glucose (VWR), 7.1 g Mycological Peptone (Oxoid), 1.4 g granulated Yeast Extract (Merck), QSP 1 liter • Inoculum: spores suspension
Fungicides were solubilized in DMSO and the solution used to prepare the required range of concentrations. The final concentration of DMSO used in the assay was ≤1%.
A spore suspension of C. lindemuthianum was prepared and diluted to the desired spore density.
Fungicides were evaluated for their ability to inhibit spores germination and mycelium growth in liquid culture assay. The compounds were added in the desired concentration to the culture medium with spores. After 6 days incubation, fungi-toxicity of compounds was determined by spectrometric measurement of mycelium growth. Inhibition of fungal growth was determined by comparing the absorbance values in wells containing the fungicides with the absorbance in control wells without fungicides.

[6] = test system: Alternaria alternata; experiment: Alternaria alternata in vitro cell test; assay type: cell-based; conditions: 120 h, 20 ppm of active ingredient, liquid culture with spores, 5 days incubation, spectrometric measurement of mycelium growth, read-out: efficacy (inhibition of fungal growth)
Protocol: (§2) B-6. Alternaria alternata In Vitro Cell Test • Solvent: DMSO • Culture medium: 14.6 g anhydrous D-glucose (VWR), 7.1 g Mycological Peptone (Oxoid), 1.4 g granulated Yeast Extract (Merck), QSP 1 liter • Inoculum: spores suspension Fungicides were solubilized in DMSO and the solution used to prepare the required range of concentrations. […] A spore suspension of A. alternata was prepared and diluted to the desired spore density. Fungicides were evaluated for their ability to inhibit spore germination and mycelium growth in liquid culture assay. The compounds were added in the desired concentration to the culture medium with spores. After 5 days incubation, fungi-toxicity of compounds was determined by spectrometric measurement of mycelium growth. Inhibition of fungal growth was determined by comparing the absorbance values in wells containing the fungicides with the absorbance in control wells without fungicides.

[7] = test system: Pyrenophora teres; experiment: Pyrenophora teres in vitro cell test; assay type: cell-based; conditions: 144 h, 20 ppm of active ingredient, liquid culture with spores, 6 days incubation, spectrometric measurement of mycelium growth, read-out: efficacy (inhibition of fungal growth)
Protocol: as §2, with “B-9. Pyrenophora Teres In” for “B-6. Alternaria alternata In”, “Inoculum: spore” for “Inoculum: spores”, “of P. teres” for “of A. alternata”, “After 6” for “After 5”

Compound | chromatographic logP [1] | pest or weed control at 500 ppm [3] | LogP [1] | other results
Cc1ccc(CCNC(=O)c2cc(Cl)nc(F)c2Oc2cccc(C(F)(F)F)c2)c(C)c1 [Compound I-018, 6-chloro-N-[2-(2,4-dimethylphenyl)ethyl]-2-fluoro-3-[3-(trifluoromethyl)phenoxy]pyridine-4-carboxamide] | 4.95 | 90 to 100% |  | pest or weed control at 500 ppm [2]: 90 to 100%
Cc1ccc(C(F)(F)CNC(=O)c2c(Oc3cccc(C(F)(F)F)c3)cnc(Cl)c2C)c(C)c1 [Compound I-019, 2-chloro-N-[2-(2,4-dimethylphenyl)-2,2-difluoro-ethyl]-3-methyl-5-[3-(trifluoromethyl)phenoxy]pyridine-4-carboxamide] | 4.64 | 90 to 100% |  | inhibition at 20 ppm [4]: 90 to 100%; inhibition at 20 ppm [5]: 90 to 100%; pest or weed control at 500 ppm [2]: 90 to 100%; inhibition at 20 ppm [6]: 90 to 100%
CCc1ccc(C(F)(F)CNC(=O)c2cc(Cl)ncc2Oc2cccc(C(F)(F)F)c2)c(Cl)c1 [Compound I-034, 2-chloro-N-[2-(2-chloro-4-ethyl-phenyl)-2,2-difluoro-ethyl]-5-[3-(trifluoromethyl)phenoxy]pyridine-4-carboxamide] | 4.98 | 90 to 100% |  | pest or weed control at 500 ppm [2]: 90 to 100%; inhibition at 20 ppm [6]: 80 to 89%
Cc1ccc(CCNC(=O)c2cc(NC3CC3)ncc2Oc2cccc(C(F)(F)F)c2)c(C)c1 [Compound I-050, 2-(cyclopropylamino)-N-[2-(2,4-dimethylphenyl)ethyl]-5-[3-(tri-fluoromethyl)phenoxy]pyridine-4-carboxamide] | 3.77 | 90 to 100% |  | inhibition at 20 ppm [6]: 90 to 100%
Cc1ccc(C(F)(F)CNC(=O)c2c(Oc3cccc(C(F)(F)F)c3)cnc(Cl)c2I)c(C)c1 [Compound I-057, 2-chloro-N-[2-(2,4-dimethylphenyl)-2,2-difluoro-ethyl]-3-iodo-5-[3-(trifluoromethyl)phenoxy]pyridine-4-carboxamide] | 4.8 | 90 to 100% |  | pest or weed control at 500 ppm [2]: 90 to 100%; inhibition at 20 ppm [6]: 90 to 100%
CC(=O)c1cc(C(=O)NCCc2ccc(C)cc2C)c(Oc2cccc(C(F)(F)F)c2)cn1 [Compound I-087, 2-acetyl-N-[2-(2,4-dimethylphenyl)ethyl]-5-[3-(trifluoromethyl)phenoxy]pyridine-4-carboxamide] | 4.47 | 90 to 100% |  | inhibition at 20 ppm [4]: 80 to 89%; inhibition at 20 ppm [5]: 80 to 89%; pest or weed control at 500 ppm [2]: 80 to 89%; inhibition at 20 ppm [6]: 90 to 100%
Cc1ccc(CCNC(=S)c2cc(Cl)ncc2Oc2cccc(C(F)(F)F)c2)c(C)c1 [Compound I-115, 2-chloro-N-[2-(2,4-dimethylphenyl)ethyl]-5-[3-(trifluoromethyl)phenoxy]pyridine-4-carbothioamide] | 5.42 | 90 to 100% |  | pest or weed control at 500 ppm [2]: 90 to 100%
O=C(NCC(F)(F)c1ccc(C2CCCC2)cc1Cl)c1cc(Cl)ncc1Oc1cccc(C(F)F)c1 [Compound I-124, 2-chloro-N-[2-(2-chloro-4-cyclopentyl-phenyl)-2,2-difluoro-ethyl]-5-[3-(difluoromethyl)phenoxy]pyridine-4-carboxamide] | 5.5 |  |  | inhibition at 20 ppm [7]: 90 to 100%
Cc1ccc(CCNC(=O)c2cc(Cl)ncc2Oc2ccc3c(c2)OC(F)(F)O3)c(C)c1 [Compound I-140, 2-chloro-5-[(2,2-difluoro-1,3-benzodioxol-5-yl)oxy]-N-[2-(2,4-dimethylphenyl)ethyl]pyridine-4-carboxamide] | 4.82 | 70 to 79% |  | inhibition at 20 ppm [7]: 90 to 100%; pest or weed control at 500 ppm [2]: 90 to 100%
Cc1ccc(C(F)(F)CNC(=O)c2c(Oc3cccc(C(F)(F)F)c3)cnc(Cl)c2-n2cccn2)c(C)c1 [Compound I-167, 2-chloro-N-[2-(2,4-dimethylphenyl)-2,2-difluoroethyl]-3-(1H-pyrazol-1-yl)-5-[3-(trifluoromethyl)phenoxy]pyridine-4-carboxamide] | 4.51 | 90 to 100% |  | inhibition at 20 ppm [4]: 80 to 89%; inhibition at 20 ppm [5]: 80 to 89%; inhibition at 20 ppm [7]: 90 to 100%; pest or weed control at 500 ppm [2]: 90 to 100%; inhibition at 20 ppm [6]: 90 to 100%
Cc1ccc(C(F)(F)CNC(=O)c2cc(C3CC3)ncc2Oc2cccc(C3CC3)c2F)c(C)c1 [Compound I-246] |  |  | 5.36^[a] | 
Cc1ccc(C(F)(F)CNC(=O)c2cc(Cl)nc(Cl)c2Oc2cccc(C(F)(F)F)c2)c(C)c1 [Compound I-247] |  |  | 5.16^[a] | 
CSc1cccc(Oc2cnc(Cl)cc2C(=O)NCCc2ccc(C)cc2C)c1 [Compound I-248] |  |  | 4.76^[a] | 
O=C(NCC(F)(F)c1ccc(Br)cc1Cl)c1cc(Cl)ncc1Oc1cccc(C(F)F)c1 [Compound I-249] |  |  | 4.54^[a] | 
Cc1ccc(CCNC(=O)c2cc(Cl)ncc2Oc2ccc(Cl)c(Cl)c2)c(C)c1 [Compound I-250] |  |  | 5.08^[a] | 
COc1cccc(Oc2cnc(Cl)cc2C(=O)NCCc2ccc(C)cc2C)c1 [Compound I-252] |  |  | 4.42^[a] | 
O=C(NCC(F)c1ccc(Cl)cc1Cl)c1cc(C2CC2)ncc1Oc1cccc(C2CC2)c1 (stereo not shown) [Compound I-253] |  |  | 5.42^[a] | 
Cc1ccc(CCNC(=O)c2cc(Cl)ncc2Oc2ccc(Cl)c(C(F)(F)F)c2)c(C)c1 [Compound I-254] |  |  | 5.09^[a] | 
Cc1cccc(Oc2cnc(C)cc2C(=O)NCCc2ccc(C)cc2C)c1 [Compound I-255] |  |  | 3.86^[a] | 
Cc1ccc(CCNC(=O)c2cc(Cl)ncc2Oc2cccc(C3CCC3)c2)c(C)c1 [Compound I-257] |  |  | 5.84^[a] | 
Cc1ccc(CCNC(=O)c2cc(Cl)ncc2Oc2cccc(-c3ccccn3)c2)c(C)c1 [Compound I-258] |  |  | 4.16^[a] | 
CCOc1cccc(Oc2cnc(Cl)cc2C(=O)NCCc2ccc(C)cc2C)c1 [Compound I-259] |  |  | 4.85^[a] | 
O=C(NCC(F)(F)c1ccc(Cl)cn1)c1cc(Cl)ncc1Oc1cccc(C(F)(F)F)c1 [Compound I-260] |  |  | 3.99^[a] | 
Cc1ccc(CCNC(=O)c2cc(Cl)ncc2Oc2cccc(S(C)(=O)=O)c2)c(C)c1 [Compound I-261] |  |  | 3.38^[a] | 
Cc1ccc(CCNC(=O)c2cc(C)ncc2Oc2cccc(C3CC3)c2F)c(C)c1 [Compound I-262] |  |  | 4.32^[a] | 
Cc1ccc(CCNC(=O)c2cc(Cl)ncc2Oc2c(F)ccc(C)c2F)c(C)c1 [Compound I-264] |  |  | 4.76^[a] | 
O=C(NCC(F)(F)c1ccc(-c2ccncc2Cl)cc1Cl)c1cc(Cl)ncc1Oc1cccc(C(F)(F)F)c1 [Compound I-266] |  |  | 4.51^[a] | 
COCCc1ccc(C(F)(F)CNC(=O)c2cc(CCOC)ncc2Oc2cccc(C(F)F)c2)c(Cl)c1 [Compound I-267] |  |  | 3.74^[a] | 
Cc1ccc(CCNC(=O)c2cc(Cl)ncc2Oc2ccc(C)c(Cl)c2)c(C)c1 [Compound I-268] |  |  | 5.23^[a] | 
